Several values for one entry are separate records, joined by “and”; a condition that tells them apart may be missing. Identical values can stand only once. Inconclusive results and toxic doses are left out. Rule for the calls: active = survival T/C of 150% or more; inactive = T/C below 125% in these data.
System: P388 leukemia ip, CD2F1 mice, survival T/C
Assay: NCI In Vivo Anticancer Drug Screen. Data for tumor model P388 Leukemia (intraperitoneal) in CD2F1 (CDF1) mice
Settings: endpoint: median survival time, higher = longer survival
Procedure, shortened: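 Mice carrying the transplanted tumor received test compound or vehicle. Survival was recorded in each group, and the value is the treated-group measurement divided by that of the vehicle-treated control group.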

[1] = dose: 7.5 mg/kg/injection, schedule: Q01DX005 (ip), vehicle: water
[2] = dose: 15.0 mg/kg/injection, schedule: Q01DX005 (ip), vehicle: water
[3] = dose: 50.0 mg/kg/injection, schedule: Q01DX005 (ip), vehicle: saline with Tween-80
[4] = dose: 200.0 mg/kg/injection, schedule: Q01DX005 (ip), vehicle: saline with Tween-80
[5] = dose: 100.0 mg/kg/injection, schedule: Q04DX003 (ip), vehicle: saline with Tween-80
[6] = dose: 200.0 mg/kg/injection, schedule: Q04DX003 (ip), vehicle: saline with Tween-80
[7] = dose: 6.25 mg/kg/injection, schedule: Q01DX009 (ip), vehicle: saline
[8] = dose: 100.0 mg/kg/injection, schedule: Q04DX002 (ip), vehicle: Klucel (hydroxypropylcellulose) (HPC)
[9] = dose: 200.0 mg/kg/injection, schedule: Q04DX002 (ip), vehicle: Klucel (hydroxypropylcellulose) (HPC)
[10] = dose: 400.0 mg/kg/injection, schedule: Q04DX002 (ip), vehicle: Klucel (hydroxypropylcellulose) (HPC)
[11] = dose: 50.0 mg/kg/injection, schedule: Q01DX009 (ip), vehicle: Klucel (hydroxypropylcellulose) (HPC)
[12] = dose: 100.0 mg/kg/injection, schedule: Q01DX009 (ip), vehicle: saline with Tween-80
[13] = dose: 200.0 mg/kg/injection, schedule: Q01DX009 (ip), vehicle: saline with Tween-80
[14] = dose: 400.0 mg/kg/injection, schedule: Q01DX009 (ip), vehicle: saline with Tween-80
[15] = dose: 60.0 mg/kg/injection, schedule: Q01DX005 (ip), vehicle: saline with Tween-80
[16] = dose: 120.0 mg/kg/injection, schedule: Q01DX005 (ip), vehicle: saline with Tween-80
[17] = dose: 100.0 mg/kg/injection, schedule: Q01DX009 (ip), vehicle: saline
[18] = dose: 200.0 mg/kg/injection, schedule: Q01DX009 (ip), vehicle: saline
[19] = dose: 400.0 mg/kg/injection, schedule: Q01DX009 (ip), vehicle: saline
[20] = dose: 25.0 mg/kg/injection, schedule: Q01DX009 (ip), vehicle: saline
[21] = dose: 50.0 mg/kg/injection, schedule: Q01DX009 (ip), vehicle: saline

Measured: T/C

NC(N)=NCCCC(N)C(=O)CC(Cc1ccc(O)cc1)C(=O)O (stereo not given)
inactive: [1] 98 % of control | [2] 98 % of control | dose: 30.0 mg/kg/injection, schedule: Q01DX005 (ip), vehicle: water 95 % of control | dose: 60.0 mg/kg/injection, schedule: Q01DX005 (ip), vehicle: water 98 % of control

S=C(NNc1nnc(-c2ccccc2)c(-c2ccccc2)n1)Nc1ccc(Br)cc1
inactive: dose: 12.5 mg/kg/injection, schedule: Q01DX005 (ip), vehicle: saline with Tween-80 97 % of control | dose: 25.0 mg/kg/injection, schedule: Q01DX005 (ip), vehicle: saline with Tween-80 90 % of control | [3] 97 % of control | [4] 93 % of control

O=C(CCCCl)CC(O)(C(F)(F)F)C(F)(F)F
inactive: [5] 110 % of control | [6] 90 % of control

C[n+]1c(/C=C/c2ccc(N3CCCC3)cc2)sc2ccccc21
inactive: dose: 0.79 mg/kg/injection, schedule: Q01DX009 (ip), vehicle: saline 105 % of control | dose: 1.56 mg/kg/injection, schedule: Q01DX009 (ip), vehicle: saline 95 % of control | dose: 3.12 mg/kg/injection, schedule: Q01DX009 (ip), vehicle: saline 106 % of control and 117 % of control | [7] 108 % of control

Nc1n[nH]c2c3c([nH]c(=O)c12)-c1ccccc1SC3
inactive: [8] 102 % of control | [9] 88 % of control | [10] 86 % of control

CCN(CC)Cc1c[nH]c2ccccc12
inactive: dose: 12.5 mg/kg/injection, schedule: Q01DX009 (ip), vehicle: Klucel (hydroxypropylcellulose) (HPC) 102 % of control | dose: 25.0 mg/kg/injection, schedule: Q01DX009 (ip), vehicle: Klucel (hydroxypropylcellulose) (HPC) 103 % of control | [11] 97 % of control

CCOC(=O)c1c(O)cc(C)[nH]c1=O
inactive: dose: 50.0 mg/kg/injection, schedule: Q01DX009 (ip), vehicle: saline with Tween-80 103 % of control and 96 % of control | [12] 100 % of control and 94 % of control and 98 % of control | [13] 103 % of control and 106 % of control and 93 % of control | [14] 104 % of control and 106 % of control and 122 % of control

[Se]=[Re]=[Se]
inactive: [15] 96 % of control | [16] 98 % of control | dose: 240.0 mg/kg/injection, schedule: Q01DX005 (ip), vehicle: saline with Tween-80 109 % of control

CCN(Cc1cccc(S(=O)(=O)O)c1)c1ccc(C(=C2C=CC(=[N+](CC)Cc3cccc(S(=O)(=O)O)c3)C=C2)c2ccc(O)c(S(=O)(=O)O)c2)cc1
inactive: [3] 97 % of control | dose: 100.0 mg/kg/injection, schedule: Q01DX005 (ip), vehicle: saline with Tween-80 99 % of control | [4] 100 % of control

C=CS(C=C)=NS(=O)(=O)c1ccc(C)cc1
inactive: dose: 6.25 mg/kg/injection, schedule: Q01DX009 (ip), vehicle: other 107 % of control and 110 % of control and 120 % of control | dose: 12.5 mg/kg/injection, schedule: Q01DX009 (ip), vehicle: other 107 % of control and 118 % of control and 120 % of control | dose: 25.0 mg/kg/injection, schedule: Q01DX009 (ip), vehicle: other 117 % of control

CCCCN(CCCC)CCCCCCCC(O)c1cc2ccccc2c2ccccc12 (stereo not given)
inactive: dose: 50.0 mg/kg/injection, schedule: Q01DX005 (ip), vehicle: saline + Tween-80 + alcohol 113 % of control | dose: 100.0 mg/kg/injection, schedule: Q01DX005 (ip), vehicle: saline + Tween-80 + alcohol 110 % of control

O=C(CCCCCCCCc1ccc(O)c(O)c1)c1c(O)cccc1O
inactive: dose: 3.0 mg/kg/injection, schedule: Q01DX009 (ip), vehicle: Klucel (hydroxypropylcellulose) (HPC) 101 % of control | dose: 12.0 mg/kg/injection, schedule: Q01DX009 (ip), vehicle: Klucel (hydroxypropylcellulose) (HPC) 108 % of control | dose: 24.0 mg/kg/injection, schedule: Q01DX009 (ip), vehicle: Klucel (hydroxypropylcellulose) (HPC) 101 % of control

Cc1cc2[n-]c1/C=c1\[n-]/c(c(CCC(=O)O)c1C)=C\c1[n-]c(c(C)c1CCC(=O)O)/C=c1/cc(C)/c([n-]1)=C/2.[Co]
inactive: dose: 12.5 mg/kg/injection, schedule: Q01DX005 (ip), vehicle: Klucel (hydroxypropylcellulose) (HPC) 98 % of control | dose: 25.0 mg/kg/injection, schedule: Q01DX005 (ip), vehicle: Klucel (hydroxypropylcellulose) (HPC) 101 % of control and 97 % of control | dose: 50.0 mg/kg/injection, schedule: Q01DX005 (ip), vehicle: Klucel (hydroxypropylcellulose) (HPC) 106 % of control

CCCCC1(CCCCCCCCCO)OCCO1
inactive: [8] 101 % of control | [9] 99 % of control | [10] 100 % of control

Cc1ccc(C2ON2S(=O)(=O)c2ccc(C)cc2)cc1 (stereo not given)
inactive: [11] 113 % of control | dose: 100.0 mg/kg/injection, schedule: Q01DX009 (ip), vehicle: Klucel (hydroxypropylcellulose) (HPC) 105 % of control | dose: 200.0 mg/kg/injection, schedule: Q01DX009 (ip), vehicle: Klucel (hydroxypropylcellulose) (HPC) 100 % of control

CC1=CC(=O)C(O)=C/C1=C\C=C\c1ccccc1
inactive: dose: 2.5 mg/kg/injection, schedule: Q01DX009 (ip), vehicle: saline with Tween-80 110 % of control | dose: 5.0 mg/kg/injection, schedule: Q01DX009 (ip), vehicle: saline with Tween-80 104 % of control | dose: 10.0 mg/kg/injection, schedule: Q01DX009 (ip), vehicle: saline with Tween-80 103 % of control

COc1ccc2nccc(NCCCN3CCN(CCCNc4ccnc5ccc(OC)cc45)CC3)c2c1
inactive: dose: 3.75 mg/kg/injection, schedule: Q01DX005 (ip), vehicle: water 104 % of control | [1] 107 % of control | [2] 99 % of control

CCOP(=O)(CCCCN1C(=O)c2ccccc2C1=O)OCC
inactive: [17] 100 % of control | [18] 100 % of control | [19] 100 % of control

Cc1ccc(C(=O)CCN(C)C)cc1
inactive: [7] 105 % of control | dose: 12.5 mg/kg/injection, schedule: Q01DX009 (ip), vehicle: saline 100 % of control | [20] 96 % of control | [21] 98 % of control and 106 % of control | [17] 107 % of control

c1ccc([P+](Cc2ccc(C[P+](c3ccccc3)(c3ccccc3)c3ccccc3)cc2)(c2ccccc2)c2ccccc2)cc1
inactive: dose: 0.07 mg/kg/injection, schedule: Q01DX009 (ip), vehicle: saline sonified 90 % of control | dose: 0.15 mg/kg/injection, schedule: Q01DX009 (ip), vehicle: saline sonified 95 % of control | dose: 0.3 mg/kg/injection, schedule: Q01DX009 (ip), vehicle: saline sonified 90 % of control | dose: 0.6 mg/kg/injection, schedule: Q01DX009 (ip), vehicle: saline sonified 100 % of control

CC(C)(C)C(=O)Oc1ccc[nH]c1=O
inactive: [20] 100 % of control and 110 % of control | [21] 106 % of control and 116 % of control | [17] 100 % of control and 116 % of control | [18] 121 % of control and 94 % of control | [19] 106 % of control and 109 % of control

CC(=O)c1c(C)[nH]c(-c2ccccc2)c1NS(=O)(=O)c1ccc(N)cc1
inactive: [15] 98 % of control | [16] 91 % of control

Cc1ccc2cccc(OC(=O)Nc3ccc(C)c(NC(=O)Oc4cccc5ccc(C)nc45)c3)c2n1
inactive: dose: 15.0 mg/kg/injection, schedule: Q01DX005 (ip), vehicle: saline with Tween-80 95 % of control | dose: 30.0 mg/kg/injection, schedule: Q01DX005 (ip), vehicle: saline with Tween-80 97 % of control | [15] 99 % of control and 93 % of control

Cc1c2ccnc(C#N)c2c(C)c2c1[nH]c1ccccc12
inactive: dose: 0.78 mg/kg/injection, schedule: Q04DX003 (ip), vehicle: distilled water + Tween-80 91 % of control | dose: 1.56 mg/kg/injection, schedule: Q04DX003 (ip), vehicle: distilled water + Tween-80 97 % of control | dose: 3.13 mg/kg/injection, schedule: Q04DX003 (ip), vehicle: distilled water + Tween-80 97 % of control | dose: 6.25 mg/kg/injection, schedule: Q04DX003 (ip), vehicle: distilled water + Tween-80 87 % of control and 88 % of control

COC(=O)c1ccc(SSc2ccc(C(=O)OC)cc2[N+](=O)[O-])c([N+](=O)[O-])c1
inactive: [12] 91 % of control | [5] 90 % of control | [13] 100 % of control | [6] 95 % of control | [14] 91 % of control | dose: 400.0 mg/kg/injection, schedule: Q04DX003 (ip), vehicle: saline with Tween-80 90 % of control

— PubChem BioAssay AID330 (DTP/NCI, 2004)
